This is an account of results in US10696678B2, “Kinase inhibitor, and preparing method and pharmaceutical use thereof” (GAN & LEE PHARMACEUTICALS, priority 2015, dated 2020).

Where two headings read alike, the source gives them in different places.

The target of one assay is CDK4/D3 (Homo sapiens (Human), UniProt P11802). Nature of the assay: CDKs inhibition assay (ADP-Glo Kinase Assay), CDK4. In general terms: ADP-Glo first removes unused ATP, then detects ADP through luciferase.
Assay [1] deals with human breast cancer cell line MDB-MA-231. Nature of the assay: Proliferation inhibition assay on human breast cancer cell line MDA-MB-231 (DAPI staining, In Cell Analyzer). Type of assay: cell-based. On the procedure: Experimental Preparation:
1. MDA-MB-231 cells were seeded at 4000 cells/100 ul/well to a 96-well plate with black transparent bottom, and cultured overnight at 37° C.;
3. Fixation: the cell plate was taken, medium was removed, and 50 μl of 4% paraformaldehyde was added to each well and fixed 10 min;
4.50 μl 0.1 M glycine was added to neutralize for 10 min;
6. Permeabilization: 50 ul of 0.2% TritonX-100 was added to each well and permeabilized at room temperature for 10 min;
8.5 mg/mL DAPI stock solution was diluted at 1:5000 (final concentration 1 μg/ml) and the cells were stained at room temperature for 20 min.
10. The plate was scanned and analyzed on In cell analyser.

Another assay deals with CDK6/D3 (Homo sapiens (Human), UniProt Q00534). Nature of the assay: CDKs inhibition assay (ADP-Glo Kinase Assay), CDK6.
CDK6/D3, sequence (Q00534 whole entry): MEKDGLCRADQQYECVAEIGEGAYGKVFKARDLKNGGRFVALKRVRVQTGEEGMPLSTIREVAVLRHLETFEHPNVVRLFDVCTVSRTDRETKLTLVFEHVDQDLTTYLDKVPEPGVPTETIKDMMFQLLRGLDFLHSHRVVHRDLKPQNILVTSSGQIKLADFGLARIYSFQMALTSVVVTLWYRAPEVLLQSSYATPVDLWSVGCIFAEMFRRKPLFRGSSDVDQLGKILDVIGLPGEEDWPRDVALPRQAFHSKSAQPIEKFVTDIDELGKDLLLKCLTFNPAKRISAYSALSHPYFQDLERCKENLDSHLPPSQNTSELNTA
CDK6/D3, sequence (P30281 whole entry partner): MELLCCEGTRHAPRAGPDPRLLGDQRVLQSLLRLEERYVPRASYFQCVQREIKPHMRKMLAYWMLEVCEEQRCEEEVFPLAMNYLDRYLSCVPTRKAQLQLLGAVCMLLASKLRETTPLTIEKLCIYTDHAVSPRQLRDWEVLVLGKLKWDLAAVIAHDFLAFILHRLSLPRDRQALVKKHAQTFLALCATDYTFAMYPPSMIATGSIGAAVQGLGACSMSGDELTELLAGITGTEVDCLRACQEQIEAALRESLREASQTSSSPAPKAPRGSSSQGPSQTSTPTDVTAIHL
[2] abbreviates: MDA-MB-231, read-out: IC50 for inhibition of proliferation of human breast cancer cell line MDB-MA-231, 72 h incubation.

CDK4/D3, sequence (P11802 whole entry): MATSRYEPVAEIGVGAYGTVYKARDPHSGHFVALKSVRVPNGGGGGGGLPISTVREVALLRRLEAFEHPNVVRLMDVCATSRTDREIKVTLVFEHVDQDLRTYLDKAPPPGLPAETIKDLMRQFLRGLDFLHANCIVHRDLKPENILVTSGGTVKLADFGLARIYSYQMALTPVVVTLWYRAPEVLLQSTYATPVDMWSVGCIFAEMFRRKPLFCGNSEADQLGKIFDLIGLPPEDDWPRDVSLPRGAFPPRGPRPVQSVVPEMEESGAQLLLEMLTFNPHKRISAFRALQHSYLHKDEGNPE
CDK4/D3, sequence (P30281 whole entry partner): as the sequence (P30281 whole entry partner) above
Method for CDK4/D3: (2) Preparation of Test Compound:
(§1) a. Test compounds at a certain concentration were taken respectively, and diluted with kinase reaction buffer I to compound solutions with a final concentration of 50 μM;
(§2) 4. Preparation of reaction substrate and ATP mixed solution:
a. Preparation of ATP solution:
(§3) 200 μl of 0.1 mM ATP solution: 2 μl of 10 mM ATP was added into 198 μl kinase reaction buffer I;
(§4) 300 μl of 50 μl M ATP solution: 150 μl kinase reaction buffer I was added into 150 μl of above-mentioned 0.1 mM ATP solution;
(§5) b. Preparation of 300 μl reaction substrate solution:
(§6) 150 μl of 1 μg/μl reaction substrate stock solution was added into 150 μl kinase reaction buffer I and uniformly mixed;
(§7) c. Above-mentioned a/b solutions were mixed to obtain mixed solutions respectively.
(§8) 2 μl compound solution at each concentration was added into a 384-well plate respectively, and centrifuged for 3 min;
(§9) 4 μl kinase solution was added into each well, centrifuged at 5000 rpm for 10 min at 18° C., and shaked well for 10 min on a shaker;
(§10) 4 μl substrate and ATP mixed solution were added into each well, centrifuged at 5000 rpm for 10 min at 18° C., and shaked well for 90 min on a shaker at 37° C.;
(§11) The 384 well plate was removed and allow to achieve room temperature;
(§12) 10 μl ADP-Glo reagent was added into each well, centrifuged at 5000 rpm for 10 min at 18° C., and shaked well for 40 min on a shaker at 25° C. to terminate the reaction;
(§13) 20 μl kinase assay reagent was added into each well, centrifuged at 5000 rpm for 10 min at 18° C., and shaked well for 30 min on a shaker at 25° C.;
(§14) Fluorescence values were read by M1000pro microplate reader.
(§15) The inhibition rate of each compound at each concentration point was calculated according to the following equation, and IC50 value was calculated by curve fitting using GraphPad Prism 5 software.
Method for CDK6/D3: (2) Preparation of Test Compound:
as §1, §2
a. Preparation of ATP solution:
as §3, §4, §5, §6, §7, §8, §9, §10, §11, §12, §13, §14, §15

Regarding `CC1CCc2nc3c(F)cc(-c4nc(Nc5ccc6c(n5)CCN(C(=O)CO)C6)ncc4F)cc3n21` (stereo not shown) [Example 58, 1-(2-((5-Fluoro-4-(5-fluoro-1-methyl-2,3-dihydro-1H-benzo[d]pyrrolo[1,2-a]imidazol-7-yl)pyrimidin-2-yl)amino)-7,8-dihydro-1,6-naphthyridin-6(5H)-yl)-2-hydroxyethan-1-one], the IC50 came to 28 nM against CDK4/D3, 458 nM in assay [1] (setting [2]) and 47.3 nM on CDK6/D3.

Consider `CCN1CCC(c2ccc(Nc3ncc(F)c(-c4cc(F)c5nc6n(c5c4)C(C)(C)CC6)n3)nc2)CC1` [Example 45, N-(5-(1-Ethylpiperidine-4-yl)pyridin-2-yl)-5-fluoro-4-(5-fluoro-1,1-dimethyl-2,3-dihydro-1H-benzo[d]pyrrolo[1,2-a]imidazol-7-yl)pyrimidin-2-amine], for which the IC50 on CDK4/D3 turned out to be 7 nM; in assay [1] (MDA-MB-231, 72 h, read-out: IC50 for inhibition of proliferation of human breast cancer cell line MDB-MA-231), 30 nM; against CDK6/D3 it was 21.7 nM.

As for `CCN1CCC(c2ccc(Nc3ncc(F)c(-c4cc(F)c5nc6n(c5c4)C(C)CC6)n3)nc2)CC1` (stereo not shown) [Example 69, N-(5-(1-Ethylpiperidine-4-yl)pyridin-2-yl)-5-fluoro-4-(5-fluoro-1-methyl-2,3-dihydro-1H-benzo[d]pyrrolo[1,2-a]imidazol-7-yl)pyrimidin-2-amine], the IC50 at CDK4/D3 was determined as 40 nM; against CDK6/D3, 24.4 nM.

As for `CC1Cc2nc3c(F)cc(-c4nc(Nc5ccc(N6CCNCC6)cn5)ncc4F)cc3n2C1` (stereo not shown) [Example 50, 5-Fluoro-4-(5-fluoro-2-methyl-2,3-dihydro-1H-benzo[d]pyrrolo[1,2-a]imidazol-7-yl)-N-(5-(piperazin-1-yl)pyridin-2-yl)pyrimidin-2-amine], the values for the IC50 (against CDK4/D3; in assay [1] (setting [2]); at CDK6/D3) were 17.6 nM, 3650 nM and 368 nM, respectively.

On to `CC1CCc2nc3c(F)cc(-c4nc(Nc5ccc(C6CCNCC6)cn5)ncc4F)cc3n21` (stereo not shown) [Example 61], for which the IC50 on CDK4/D3 was 3.9 nM; in assay [1] (setting [2]) it was 1530 nM; on CDK6/D3, 80 nM.

Regarding `CCN1CCN(C(=O)c2ccc(Nc3ncc(F)c(-c4cc(F)c5nc6n(c5c4)C(C)(C)CC6)n3)nc2)CC1` [Example 32, (4-Ethylpiperazin-1-yl)(6-((5-fluoro-4-(5-fluoro-1,1-dimethyl-2,3-dihydro-1H-benzo[d]pyrrolo[1,2-a]imidazol-7-yl)pyrimidin-2-yl)amino)pyridin-3-yl)methyl ketone], the values for the IC50 (against CDK4/D3; in assay [1] (setting [2]); against CDK6/D3) were 49 nM, 579 nM and 13 nM, respectively.

For `CC1(C)CCc2nc3c(F)cc(-c4ccnc(Nc5ccc(N6CCNCC6)cn5)n4)cc3n21` [Example 23, 4-(5-Fluoro-1,1-dimethyl-2,3-dihydro-1H-benzo[d]pyrrolo[1,2-a]imidazol-7-yl)-N-(5-(piperazin-1-yl)pyridin-2-yl)pyrimidin-2-amine], the IC50 in assay [1] (setting [2]) came to 543 nM; on CDK6/D3 it was 90 nM.

With `CC1(C)CCc2nc3c(F)cc(-c4nc(Nc5ccc(C6CCNCC6)cn5)ncc4F)cc3n21` [Example 26], in assay [1] (setting [2]), the IC50 came to 214 nM.

For the compound `CC1(C)CCc2nc3c(F)cc(-c4nc(Nc5ccc6c(n5)CCN(C(=O)CO)C6)ncc4F)cc3n21` [Example 21, 1-(2-((5-Fluoro-4-(5-fluoro-1,1-dimethyl-2,3-dihydro-1H-benzo[d]pyrrolo[1,2-a]imidazol-7-yl)pyrimidin-2-yl)amino)-7,8-dihydro-1,6-naphthyridin-6(5H)-yl)-2-hydroxyethan-1-one], the IC50 against CDK6/D3 amounted to 17.6 nM.

In the case of `CCC1CCc2nc3c(F)cc(-c4nc(Nc5ccc(C6CCN(C)CC6)cn5)ncc4F)cc3n21` (stereo not shown) [Example 68, 4-(1-Ethyl-5-fluoro-2,3-dihydro-1H-benzo[d]pyrrolo[1,2-a]imidazolel-7-yl)-5-fluoro-N-(5-(1-methylpiperidine-4-yl)pyridin-2-yl)pyrimidin-2-amine], the IC50 against CDK4/D3 was found to be 9 nM; at CDK6/D3, 6 nM.

For the compound `CC1CCc2nc3c(F)cc(-c4nc(Nc5ccc(C6CCN(C)CC6)cn5)ncc4F)cc3n21` (stereo not shown) [Example 66], the IC50 on CDK4/D3 came out at 4.3 nM; at CDK6/D3 it was 21.4 nM.
